Data on 5 molecules can be found in ChEMBL document CHEMBL4339236, “Colletopeptides A-D, Anti-inflammatory Cyclic Tridepsipeptides from the Plant Endophytic Fungus Colletotrichum sp. S8” (J Nat Prod, 2019).

Activity calls are given as the source filed them. The calls are words filed in the database; no cut-off is given here.

For one series, the system named is Escherichia coli. The series can be described thus: Antibacterial activity against Colon bacillus measured after 24 hrs by broth microdilution assay. It counts as functional, organism-based.
The test system of another series is MDA-MB-231. Description: Cytotoxicity against human MDA-MB-231 cells measured after 48 hrs by MTS assay. Format: cell-based. To be noted: mda-mb-231, 48 h.
The next series has as its system HCT-116. The series can be described thus: Cytotoxicity against human HCT116 cells measured after 48 hrs by MTS assay. It counts as cell-based. The note with it: hct-116, 48 h.
Series [1] has as its system RAW264.7. The series can be described thus: Antiinflammatory activity in mouse RAW264.7 cells assessed as inhibition of LPS-induced nitric oxide production preincubated for 12 hrs followed by LPS-stimulation and measured after 24 hrs by Griess assay. Format: functional, cell-based.
Series [2] addresses Histone deacetylase (Homo sapiens) (UniProt Q13547+O15379+Q9UBN7+Q92769+Q9UQL6+Q8WUI4+Q9BY41+Q96DB2+P56524+Q9UKV0+Q969S8). Description: Inhibition of HDAC in human HeLa nuclear extracts using Boc-Lys(Ac)-AMC as substrate by fluorescence assay. Format: cell-free.
For series [3], the system named is HepG2. The series can be described thus: Lipid lowering activity in human HepG2 cells assessed as reduction in oleic acid-induced lipid accumulation after 24 hrs by oil red O staining based spectrophotometric method. It counts as functional, cell-based.
In a further series the test system is HeLa. Description: Cytotoxicity against human HeLa cells measured after 48 hrs by MTS assay. Format: cell-based.
For series [4], the system named is HepG2. Description: Cytotoxicity against human HepG2 cells measured after 48 hrs by MTS assay. Format: cell-based. To be noted: hepg2, 48 h.
The next series deals with Bacillus subtilis. The series can be described thus: Antibacterial activity against Bacillus subtilis measured after 24 hrs by broth microdilution assay. It counts as functional, organism-based.
The test system of a further series is A549. The series can be described thus: Cytotoxicity against human A549 cells measured after 48 hrs by MTS assay. It counts as cell-based. To be noted: a549, 48 h.
The next series relates to Staphylococcus aureus. The series can be described thus: Antibacterial activity against Staphylococcus aureus measured after 24 hrs by broth microdilution assay. Format: functional, organism-based.
For another series, the system named is Aeromonas hydrophila. Description: Antibacterial activity against Aeromonas hydrophila measured after 24 hrs by broth microdilution assay. Format: functional, organism-based.
Series [5] deals with Transcription factor p65 (Mus musculus) (UniProt Q04207). The series can be described thus: Inhibition of NFkappaB p65 phosphorylation in LPS-stimulated mouse RAW264.7 cells at 20 to 40 uM preincubated for 12 hrs followed by LPS stimulation and measured after 24 hrs by Western blot analysis. It counts as cell-based.
For series [6], the target named is T1, NF-kappa-B inhibitor alpha (Mus musculus) (UniProt Q9Z1E3).
T1 sequence (whole entry): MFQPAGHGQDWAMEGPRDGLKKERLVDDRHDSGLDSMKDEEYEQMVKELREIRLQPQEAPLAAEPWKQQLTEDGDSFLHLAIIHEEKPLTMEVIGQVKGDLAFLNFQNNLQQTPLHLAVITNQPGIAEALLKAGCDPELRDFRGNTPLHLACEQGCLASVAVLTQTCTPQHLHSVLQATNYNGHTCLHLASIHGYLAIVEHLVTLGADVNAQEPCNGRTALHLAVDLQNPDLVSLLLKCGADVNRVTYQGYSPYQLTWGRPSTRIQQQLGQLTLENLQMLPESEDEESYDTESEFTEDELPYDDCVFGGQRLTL
The series can be described thus: Inhibition of IkappaBalpha phosphorylation in LPS-stimulated mouse RAW264.7 cells at 20 to 40 uM preincubated for 12 hrs followed by LPS stimulation and measured after 24 hrs by Western blot analysis. It counts as cell-based.

Series [7] relates to RAW264.7. Description: Antiinflammatory activity in mouse RAW264.7 cells assessed as inhibition of LPS-induced TNFalpha production preincubated for 12 hrs followed by LPS-stimulation and measured after 24 hrs by ELISA. Format: functional, cell-based.
In series [8] the test system is RAW264.7. Description: Antiinflammatory activity in mouse RAW264.7 cells assessed as inhibition of LPS-induced IL-6 production preincubated for 12 hrs followed by LPS-stimulation and measured after 24 hrs by ELISA. It counts as functional, cell-based.

Sequence of Transcription factor p65 (Mus musculus) (Q04207 whole entry): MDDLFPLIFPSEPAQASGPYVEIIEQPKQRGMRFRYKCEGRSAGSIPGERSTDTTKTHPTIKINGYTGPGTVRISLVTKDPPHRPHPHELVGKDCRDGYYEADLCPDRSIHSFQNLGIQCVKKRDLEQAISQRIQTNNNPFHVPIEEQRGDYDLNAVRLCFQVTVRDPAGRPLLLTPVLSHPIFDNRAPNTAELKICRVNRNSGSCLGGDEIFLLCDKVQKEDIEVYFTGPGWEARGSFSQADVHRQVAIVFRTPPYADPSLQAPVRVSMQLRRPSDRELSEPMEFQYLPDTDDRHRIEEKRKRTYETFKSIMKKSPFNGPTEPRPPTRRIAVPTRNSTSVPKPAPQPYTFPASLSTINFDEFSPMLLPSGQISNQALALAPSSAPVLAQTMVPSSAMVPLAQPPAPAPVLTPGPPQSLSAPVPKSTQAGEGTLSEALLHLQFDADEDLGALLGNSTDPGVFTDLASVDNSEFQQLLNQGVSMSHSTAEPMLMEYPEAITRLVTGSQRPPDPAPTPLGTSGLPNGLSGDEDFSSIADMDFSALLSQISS

Regarding `CC(C)C[C@H]1C(=O)O[C@H]([C@@H](C)CCCC[C@@H](C)O)C[C@@H](O)[C@@H](C)C(=O)N[C@H](Cc2ccccc2)C(=O)N1C`, the result in the series on Escherichia coli, in the series with Bacillus subtilis, in the series on Staphylococcus aureus and in the series with Aeromonas hydrophila was inactive. For the same molecule, the Activity entry in the series with MDA-MB-231, in the series with HCT-116, in the series on HeLa, in the series with HepG2 [4] and in the series with A549 was “Non-Toxic” each time. The IC50 in the series with RAW264.7 [1] was 38.7 µM. The inhibition result in [2] was “inactive”. The outcome in the series on HepG2 [3] was Active.
Regarding `CC[C@H](C)[C@H]1C(=O)O[C@@H](CCCCC[C@@H](C)O)C[C@@H](O)[C@@H](C)C(=O)N[C@H](Cc2ccccc2)C(=O)N1C`, the result with Escherichia coli, with Bacillus subtilis, in the series with Staphylococcus aureus and in the series on Aeromonas hydrophila was inactive. Also, the Activity entry with MDA-MB-231, in the series on HCT-116, with HeLa, with HepG2 [4] and in the series on A549 was “Non-Toxic” each time. Moreover, the IC50 in the series on RAW264.7 [1] turned out to be 22.2 µM. Besides, the inhibition entry in series [2] is “inactive”. Besides, the result in the series on HepG2 [3] was Active.
`CC(C)[C@H]1C(=O)O[C@H]([C@@H](C)CCCC[C@@H](C)O)C[C@@H](O)[C@@H](C)C(=O)N[C@H](Cc2ccccc2)C(=O)N1C`: the outcome with Escherichia coli, in the series with Bacillus subtilis, in the series on Staphylococcus aureus and in the series with Aeromonas hydrophila was inactive. Moreover, the inhibition entry in series [5] and in series [6] was “Active” throughout. Also, the Activity entry with MDA-MB-231, in the series on HCT-116, in the series with HeLa, with HepG2 [4] and in the series on A549 was “Non-Toxic” in each case. Moreover, the IC50 in the series with RAW264.7 [1] is 13.5 µM. For the same molecule, the inhibition result in series [2] is “inactive”. The result in the series on HepG2 [3] was Active.
With `CC[C@H](C)[C@H]1C(=O)O[C@H]([C@@H](C)CCCC[C@@H](C)O)C[C@@H](O)[C@@H](C)C(=O)N[C@H](Cc2ccccc2)C(=O)N1C`, the result in the series with Escherichia coli, with Bacillus subtilis, with Staphylococcus aureus and in the series with Aeromonas hydrophila was inactive. Moreover, the inhibition result in [5] and in [6] was “Active” throughout. Moreover, the inhibition entry in the series with RAW264.7 [7] and in the series on RAW264.7 [8] was “Dose-dependent effect” each time. For the same molecule, the Activity entry in the series on MDA-MB-231, with HCT-116, in the series on HeLa, with HepG2 [4] and with A549 was “Non-Toxic” each time. For the same molecule, the concentration for half-maximal inhibition (IC50) in the series with RAW264.7 [1] is 8.3 µM. Further, the inhibition entry in series [2] was “inactive”. Besides, in the series on HepG2 [3], the result was Active.
Regarding `C[C@@H]1C[C@H]2[C@@H]3CCC4=CC(=O)C=C[C@]4(C)[C@@]3(F)[C@@H](O)C[C@]2(C)[C@@]1(O)C(=O)CO` [DEXAMETHASONE], the IC50 with RAW264.7 [1] worked out at 18.4 µM.
